In the NIST ThermoML archive (doi:10.1016/j.fluid.2014.10.015):

Conditions: for mass density / viscosity: Liquid; for mass density: Vibrating tube method; for viscosity: Concentric cylinders viscometry; for surface tension liquid-gas: Pendant drop shape

CC(=O)[O-].CCCCn1cc[n+](C)c1 [1-butyl-3-methylimidazolium acetate]
Conditions	mass density [kg/m3]	viscosity [mPa·s]
273.15 K, 101 kPa	1068.3	–
273.15 K, 101.33 kPa	1068.29	–
273.15 K, 238 kPa	1068.35	–
273.15 K, 5002 kPa	1070.1	–
273.15 K, 10020 kPa	1071.93	–
273.15 K, 19968 kPa	1075.5	–
273.15 K, 29945 kPa	1079.01	–
273.15 K, 40001 kPa	1082.46	–
273.15 K, 49987 kPa	1085.81	–
273.15 K, 59935 kPa	1089.07	–
273.15 K, 69985 kPa	1092.29	–
273.15 K, 79928 kPa	1095.39	–
273.15 K, 90040 kPa	1098.47	–
273.15 K, 99956 kPa	1101.42	–
273.15 K, 109260 kPa	1104.11	–
273.15 K, 119925 kPa	1107.11	–
273.15 K, 129945 kPa	1109.85	–
273.15 K, 139956 kPa	1112.52	–
278.15 K, 101.33 kPa	–	3157.5
278.17 K, 101.33 kPa	1065.11	–
283.12 K, 747 kPa	1062.18	–
283.13 K, 5103 kPa	1063.85	–
283.15 K, 101 kPa	1061.93	–
283.15 K, 101.33 kPa	–	1818.3
283.15 K, 59694 kPa	1083.4	–
283.15 K, 70000 kPa	1086.8	–
283.15 K, 79404 kPa	1089.83	–
283.15 K, 90034 kPa	1093.15	–
283.15 K, 98553 kPa	1095.75	–
283.15 K, 109979 kPa	1099.13	–
283.15 K, 120352 kPa	1102.1	–
283.15 K, 129998 kPa	1104.78	–
283.15 K, 139706 kPa	1107.39	–
283.16 K, 9902 kPa	1065.67	–
283.16 K, 29987 kPa	1073.08	–
283.16 K, 39574 kPa	1076.5	–
283.16 K, 50021 kPa	1080.12	–
283.17 K, 101.33 kPa	1061.96	–
283.17 K, 19845 kPa	1069.38	–
293.13 K, 99228 kPa	1090.59	–
293.13 K, 110000 kPa	1093.89	–
293.13 K, 120552 kPa	1097.03	–
293.13 K, 130029 kPa	1099.77	–
293.13 K, 139794 kPa	1102.51	–
293.14 K, 19892 kPa	1063.32	–
293.14 K, 89975 kPa	1087.68	–
293.15 K, 101 kPa	1055.7	–
293.15 K, 101.33 kPa	1055.7	689.5
293.15 K, 928 kPa	1056.02	–
293.15 K, 10042 kPa	1059.57	–
293.15 K, 29991 kPa	1067.08	–
293.15 K, 50024 kPa	1074.3	–
293.15 K, 59451 kPa	1077.57	–
293.15 K, 70011 kPa	1081.16	–
293.15 K, 79858 kPa	1084.42	–
293.16 K, 4731 kPa	1057.51	–
293.16 K, 39318 kPa	1070.48	–
298.13 K, 119989 kPa	1094.32	–
298.14 K, 19965 kPa	1060.4	–
298.14 K, 59928 kPa	1075.03	–
298.15 K, 101 kPa	1052.59	–
298.15 K, 101.33 kPa	1052.59	447.5
298.15 K, 1002 kPa	1052.95	–
298.15 K, 10002 kPa	1056.52	–
298.15 K, 29947 kPa	1064.19	–
298.15 K, 49953 kPa	1071.51	–
298.15 K, 70002 kPa	1078.49	–
298.15 K, 89954 kPa	1085.08	–
298.15 K, 109924 kPa	1091.31	–
298.15 K, 129954 kPa	1097.2	–
298.15 K, 139957 kPa	1100.01	–
298.16 K, 5001 kPa	1054.55	–
298.16 K, 39934 kPa	1067.89	–
298.16 K, 80006 kPa	1081.84	–
298.16 K, 99359 kPa	1088.06	–
313.13 K, 101.33 kPa	1043.35	–
313.13 K, 20418 kPa	1051.65	–
313.13 K, 30021 kPa	1055.44	–
313.13 K, 39510 kPa	1059.09	–
313.13 K, 50039 kPa	1063.04	–
313.14 K, 59562 kPa	1066.53	–
313.14 K, 139775 kPa	1092.44	–
313.15 K, 101 kPa	1043.35	–
313.15 K, 101.33 kPa	–	155
313.15 K, 70013 kPa	1070.25	–
313.15 K, 119744 kPa	1086.54	–
313.15 K, 129979 kPa	1089.6	–
313.16 K, 10222 kPa	1047.54	–
313.16 K, 79427 kPa	1073.52	–
313.16 K, 89989 kPa	1077.08	–
313.16 K, 98994 kPa	1080.03	–
313.16 K, 109981 kPa	1083.53	–
313.17 K, 5238 kPa	1045.49	–
313.18 K, 1226 kPa	1043.82	–
333.13 K, 101.33 kPa	1031.21	–
333.14 K, 9567 kPa	1035.37	–
333.15 K, 101 kPa	1031.21	–
333.15 K, 101.33 kPa	–	53.5
333.15 K, 628 kPa	1031.45	–
333.15 K, 4971 kPa	1033.37	–
333.15 K, 20116 kPa	1039.9	–
333.15 K, 29979 kPa	1044.01	–
333.15 K, 49981 kPa	1052.04	–
333.15 K, 59681 kPa	1055.77	–
333.15 K, 70024 kPa	1059.64	–
333.15 K, 79610 kPa	1063.12	–
333.16 K, 39561 kPa	1047.91	–
333.16 K, 89976 kPa	1066.77	–
333.17 K, 99080 kPa	1069.88	–
333.17 K, 109991 kPa	1073.48	–
333.17 K, 120185 kPa	1076.74	–
333.17 K, 129974 kPa	1079.75	–
333.17 K, 139981 kPa	1082.73	–
343.16 K, 101.33 kPa	1025.2	–
353.12 K, 1410 kPa	1019.9	–
353.12 K, 139714 kPa	1072.82	–
353.13 K, 120068 kPa	1066.76	–
353.13 K, 130015 kPa	1069.89	–
353.14 K, 4959 kPa	1021.56	–
353.14 K, 99015 kPa	1059.73	–
353.14 K, 109983 kPa	1063.46	–
353.15 K, 101 kPa	1019.28	–
353.15 K, 101.33 kPa	1019.28	24.4
353.15 K, 60022 kPa	1045.25	–
353.15 K, 70021 kPa	1049.15	–
353.15 K, 80038 kPa	1052.92	–
353.15 K, 90002 kPa	1056.56	–
353.16 K, 9951 kPa	1023.86	–
353.16 K, 49992 kPa	1041.22	–
353.17 K, 20183 kPa	1028.49	–
353.17 K, 29998 kPa	1032.8	–
353.18 K, 39534 kPa	1036.88	–
373.14 K, 19875 kPa	1017.03	–
373.14 K, 139805 kPa	1063.23	–
373.15 K, 101 kPa	1007.58	–
373.15 K, 101.33 kPa	–	13.8
373.15 K, 9977 kPa	1012.37	–
373.15 K, 99180 kPa	1049.72	–
373.15 K, 110012 kPa	1053.53	–
373.15 K, 120856 kPa	1057.2	–
373.15 K, 129989 kPa	1060.16	–
373.16 K, 4871 kPa	1009.91	–
373.16 K, 29995 kPa	1021.67	–
373.16 K, 49968 kPa	1030.42	–
373.16 K, 59224 kPa	1034.29	–
373.16 K, 90022 kPa	1046.37	–
373.17 K, 2297 kPa	1008.66	–
373.17 K, 39711 kPa	1025.99	–
373.17 K, 69994 kPa	1038.66	–
373.18 K, 79589 kPa	1042.42	–
393.13 K, 5180 kPa	998.69	–
393.14 K, 60153 kPa	1024.29	–
393.14 K, 69980 kPa	1028.4	–
393.14 K, 80125 kPa	1032.49	–
393.14 K, 120002 kPa	1047.09	–
393.15 K, 101 kPa	996.11	–
393.15 K, 3086 kPa	997.63	–
393.15 K, 10081 kPa	1001.16	–
393.15 K, 20117 kPa	1006.09	–
393.15 K, 30011 kPa	1010.81	–
393.15 K, 40130 kPa	1015.49	–
393.15 K, 49985 kPa	1019.89	–
393.15 K, 90011 kPa	1036.33	–
393.15 K, 109214 kPa	1043.37	–
393.15 K, 130005 kPa	1050.39	–
393.16 K, 99789 kPa	1039.98	–
393.16 K, 139958 kPa	1053.52	–
413.12 K, 2006 kPa	985.88	–
413.12 K, 5092 kPa	987.51	–
413.13 K, 20186 kPa	995.28	–
413.14 K, 30014 kPa	1000.15	–
413.14 K, 40204 kPa	1005.02	–
413.14 K, 49979 kPa	1009.54	–
413.14 K, 60179 kPa	1014.09	–
413.14 K, 70022 kPa	1018.33	–
413.14 K, 99791 kPa	1030.18	–
413.14 K, 119957 kPa	1037.4	–
413.14 K, 139956 kPa	1043.92	–
413.15 K, 101 kPa	984.86	–
413.15 K, 79800 kPa	1022.54	–
413.15 K, 90200 kPa	1026.45	–
413.15 K, 109956 kPa	1033.9	–
413.15 K, 129954 kPa	1040.74	–
413.16 K, 10624 kPa	990.4	–

Conditions	surface tension liquid-gas [mN/m]
293.2 K	37.87
298.2 K	37.61
303.2 K	37.36
308.2 K	37.11
313.2 K	36.88
318.2 K	36.63
323.2 K	36.42
328.2 K	36.2
